Measured values as given in patent publication US10894817B2, “Fatty acid modified urocortin-2 analogs for the treatment of diabetes and chronic kidney disease” (priority 2016, dated 2021).
Several values for one entry are separate records, joined by “and”; a condition that tells them apart may be missing. Equal values may be shown once. Read-outs that look alike come from different tables or passages of the source. Each block holds one molecule with its values, some of them ahead of it. Starred links: 1 amine or outer side, 2 acyl side, 3 side chain; linkers in the order of their positions; H or OH if unused. Non-standard residues stand in square brackets, D forms with d. Residues, ends and D or L forms follow the SMILES beside them. Groups on a side chain read outwards from the residue. *: point of attachment. C20 diacid = O=C(O)CCCCCCCCCCCCCCCCCCC(=O)*; C18 diacid = O=C(O)CCCCCCCCCCCCCCCCC(=O)*; γGlu = O=C(O)[C@H](CCC(=O)[*:2])N[*:1]; NMeI = CC[C@H](C)[C@H](NC)C(=O)O; AEEA = NCCOCCOCC(=O)O

Experiments:
[1] = cynomolgus monkey, in vivo, sc, 96.4 nmol/kg
Experimental: (§1) Plasma concentrations of compounds were determined by LC/MS methods. Each method measured the intact compound; peptide plus linked time extension. For each assay, the compound and an analog, used as an internal standard (IS), were extracted from 100% mouse, rat or monkey plasma (25 μl) using acetonitrile. Two distinct layers were formed upon centrifugation with the compound and the IS located in the supernatant layer. An aliquot of the supernatant (80 μl) was transferred to a Thermo Protein Precipitation Plate with water (150 μl) and formic acid (25 μl) followed by mixing. A final 31% acetonitrile in 10% formic acid sample (10 μl) was loaded onto a Supelco Analytical Discovery BIO Wide Pore C5-3 column (5 cm×1 mm, 3 μm). The column effluent was directed into a Thermo Q-Exactive mass spectrometer for detection and quantitation.
(§2) Male Cynomolgus monkeys were administered a single subcutaneous dose or intravenous dose (96.4 nmol/kg) of a compound described herein in 20 mM Tris-HCl Buffer (pH 7) at a volume of 1 mL/kg. Blood was collected from each animal at 2, 6, 24, 48, 72, 96, 168, 240, 336, 408, and 504 hours postdose for pharmacokinetic characterization.
(§3) Male Cynomolgus monkeys were also administered a single subcutaneous dose (50 nmol/kg) of a compound described herein in 20 mM Tris-HCl Buffer (pH 8) at a volume of 0.26 mL/kg. Blood was collected from each animal at 3, 6, 12, 24, 48, 72, 96, 120, 168, 192, 240, 336, 408, and 504 hours postdose for pharmacokinetic characterization.

[2] = Pharmacokinetics, single intravenous dose, monkeys; conditions: for clearance: in vivo, CL
Experimental: Plasma concentrations of compounds were determined by LC/MS methods. Each method measured the intact compound; peptide plus linked time extension. […] Two distinct layers were formed upon centrifugation with the compound and the IS located in the supernatant layer. An aliquot of the supernatant (80 μl) was transferred to a Thermo Protein Precipitation Plate with water (150 μl) and formic acid (25 μl) followed by mixing. A final 31% acetonitrile in 10% formic acid sample (10 μl) was loaded onto a Supelco Analytical Discovery BIO Wide Pore C5-3 column (5 cm×1 mm, 3 μm). The column effluent was directed into a Thermo Q-Exactive mass spectrometer for detection and quantitation.
as §2

human CRHR2b = target: T1, human CRHR2b (Homo sapiens, UniProt Q13324); experiment: human CRHR2b cell-based cAMP assay; conditions: cAMP assay, CHO cells transfected with human CRHR2b; mean ± SEM of runs; read-out: hCRHR2b Average EC50
T1 construct: expressed in transfected cells; host or cells: Chinese Hamster Ovary (CHO) cells, transient transfection
T1 sequence (Q13324 1-438 isoform Q13324-2): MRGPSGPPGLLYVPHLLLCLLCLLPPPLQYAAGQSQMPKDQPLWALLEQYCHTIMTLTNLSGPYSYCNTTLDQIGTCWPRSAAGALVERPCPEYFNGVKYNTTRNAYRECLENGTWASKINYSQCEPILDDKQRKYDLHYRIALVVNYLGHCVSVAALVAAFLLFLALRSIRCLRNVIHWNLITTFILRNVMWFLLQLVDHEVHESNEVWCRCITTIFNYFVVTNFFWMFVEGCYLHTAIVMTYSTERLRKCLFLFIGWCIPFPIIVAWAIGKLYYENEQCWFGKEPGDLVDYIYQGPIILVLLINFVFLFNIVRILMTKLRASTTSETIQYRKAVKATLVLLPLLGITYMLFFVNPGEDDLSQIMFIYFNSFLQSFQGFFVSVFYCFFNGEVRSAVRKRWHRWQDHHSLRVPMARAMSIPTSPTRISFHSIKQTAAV
Outline: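 ED50 values are means ± SEM over several runs, curve-fitted from cAMP in pmol, calibrated against unlabeled-cAMP standards. Detection was HTRF competition, ratio 665/620 nm, after 30 min agonist exposure at 37 °C.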

[3] = Pharmacokinetics, single subcutaneous dose, mice; conditions: sc
Experimental: as §1
(§4) Male CD-1 mice were administered a single subcutaneous dose (350, 386 or 388 nmol/kg) of a compound described herein in 20 mM Tris-HCl Tris Buffer (pH 7 or 8) at a volume of 0.05 or 0.06 mL/animal. Blood was collected at 6, 12, 24, 48, 72, 96, 120 and 168 hours postdose for pharmacokinetic characterization (101).

[4] = Pharmacokinetics, single subcutaneous dose, monkeys; conditions: for half-life: T1/2, male Cynomolgus monkeys
Experimental: as §1, §2, §3

[5] = mouse, in vivo, sc, 386 nmol/kg
Experimental: as §1, §4

[6] = male Cynomolgus monkeys, single 96.4 nmol/kg i.v., individual animal
[7] = male, cynomolgus monkey, plasma, iv, 96.4 nmol/kg
[8] = male, CD-1, mouse, plasma, 386 nmol/kg
[9] = male Cynomolgus monkeys, single 96.4 nmol/kg s.c., individual animal
[10] = male, cynomolgus monkey, plasma, sc, 96.4 nmol/kg
[11] = male, CD-1, mouse, plasma, 350 nmol/kg
[12] = male Cynomolgus monkeys, single 50 nmol/kg s.c., individual animal
[13] = male, cynomolgus monkey, plasma, sc, 50 nmol/kg
[14] = male, cynomolgus monkey, plasma, sc, 50 nmol/kg, Tmax, male Cynomolgus monkeys, single 50 nmol/kg s.c., Mean
[15] = male, cynomolgus monkey, plasma, sc, 50 nmol/kg, Tmax, male Cynomolgus monkeys, single 50 nmol/kg s.c., individual animal

Compound: CC[C@H](C)[C@H](NC(C)=O)C(=O)N[C@H](C(=O)N[C@@H](CC(C)C)C(=O)N[C@@H](CO)C(=O)N[C@@H](CC(C)C)C(=O)N[C@@H](CC(=O)O)C(=O)N[C@H](C(=O)N1CCC[C@H]1C(=O)N[C@H](C(=O)NCC(=O)N[C@@H](CC(C)C)C(=O)N[C@@H](CC(C)C)C(=O)N[C@@H](CCC(N)=O)C(=O)N[C@H](C(=O)N[C@@H](CC(C)C)C(=O)N[C@@H](CC(C)C)C(=O)N[C@@H](CCC(=O)O)C(=O)N[C@@H](CCC(N)=O)C(=O)N[C@@H](CCC(=O)O)C(=O)N[C@@H](CCCCN)C(=O)N[C@@H](CCC(N)=O)C(=O)N[C@@H](CCC(=O)O)C(=O)N[C@@H](CCCCN)C(=O)N[C@@H](CCC(=O)O)C(=O)N[C@@H](CCCCN)C(=O)N[C@@H](CCC(N)=O)C(=O)N[C@@H](CCC(N)=O)C(=O)N[C@@H](C)C(=O)N[C@@H](CCCCNC(=O)COCCOCCNC(=O)COCCOCCNC(=O)CC[C@H](NC(=O)CC[C@H](NC(=O)CCCCCCCCCCCCCCCCCCC(=O)O)C(=O)O)C(=O)O)C(=O)N[C@H](C(=O)N[C@@H](CC(N)=O)C(=O)N[C@@H](C)C(=O)N[C@@H](CCC(N)=O)C(=O)N[C@H](C(=O)N[C@@H](CC(C)C)C(=O)N[C@@H](C)C(=O)N[C@@H](CCC(N)=O)C(=O)N[C@H](C(N)=O)C(C)C)[C@@H](C)CC)[C@@H](C)O)[C@@H](C)CC)[C@@H](C)CC)C(C)C)C(C)C [Example 2] (Ac-IVLSLDVPIGLLQILLEQEKQEKEKQQAK([AEEA-AEEA-γGlu-γGlu-C20 diacid])TNAQILAQV-NH2)
CL/F ([1]; CL/F): 9.84 mL/day/kg
half-life ([1]; T1/2): 97 h
clearance ([2]; cynomolgus monkey, iv, 96.4 nmol/kg, male Cynomolgus monkeys, single 96.4 nmol/kg i.v., Mean): 7.68 mL/day/kg
clearance ([2]; cynomolgus monkey, iv, 96.4 nmol/kg, male Cynomolgus monkeys, single 96.4 nmol/kg i.v., individual animal): 6.72 mL/day/kg
C0 (estimated plasma concentration at time zero) [2, 6]: 3267 nM and 3059 nM
CL [2, 6]: 8.64 mL/day/kg
AUC(0-inf) [2, 7]: 306 µM·h
C0 [2, 7]: 3160 nM
EC50 (human CRHR2b): 1.2 ± 0.52 nM
AUC(0-inf) [3, 8]: 46.5 µM·h
Cmax [3, 8]: 1150 nM
Tmax ([3]; mouse, in vivo, 386 nmol/kg): 12 h
Tmax ([4]; cynomolgus monkey, in vivo, sc, 96.4 nmol/kg, Tmax, male Cynomolgus monkeys, single 96.4 nmol/kg s.c., Mean): 36 h
Tmax ([4]; cynomolgus monkey, in vivo, sc, 96.4 nmol/kg, Tmax, male Cynomolgus monkeys, single 96.4 nmol/kg s.c., individual animal): 24 h
AUC(0-inf) [4, 9]: 237.954 µM·h and 245.711 µM·h
Cmax [4, 9]: 1238 nM and 1699 nM
Tmax [4, 9]: 48 h
AUC(0-inf) [4, 10]: 242 µM·h
Cmax [4, 10]: 1470 nM
CL/F [5]: 199 mL/day/kg
half-life [5]: 20 h

EC50 (human CRHR2b): 2 ± 1.11 nM
AUC(0-inf) [3, 11]: 35.5 µM·h
CL/F [3, 11]: 238 mL/day/kg
Cmax [3, 11]: 1340 nM
Tmax [3, 11]: 12 h
half-life [3, 11]: 14 h
AUC(0-inf) [4, 12]: 69.88 µM·h and 58.414 µM·h
CL/F [4, 12]: 20.6 mL/day/kg
Cmax [4, 12]: 441 nM and 432 nM
T1/2 [4, 12]: 70 h
AUC(0-inf) [4, 13]: 64.1 µM·h
Cmax [4, 13]: 437 nM
CL/F ([4]; male, cynomolgus monkey, plasma, sc, 50 nmol/kg, CL/F, male Cynomolgus monkeys, single 50 nmol/kg s.c., Mean): 19 mL/day/kg
CL/F ([4]; male, cynomolgus monkey, plasma, sc, 50 nmol/kg, CL/F, male Cynomolgus monkeys, single 50 nmol/kg s.c., individual animal): 17.3 mL/day/kg
half-life ([4]; male, cynomolgus monkey, plasma, sc, 50 nmol/kg, single 50 nmol/kg s.c., Mean): 85 h
half-life ([4]; male, cynomolgus monkey, plasma, sc, 50 nmol/kg, single 50 nmol/kg s.c., individual animal): 101 h
Tmax [4, 14]: 36 h
Tmax [4, 15]: 48 h
Compound: CC[C@H](C)[C@H](NC)C(=O)N[C@H](C(=O)N[C@@H](CC(C)C)C(=O)N[C@@H](CO)C(=O)N[C@@H](CC(C)C)C(=O)N[C@@H](CC(=O)O)C(=O)N[C@H](C(=O)N1CCC[C@H]1C(=O)N[C@H](C(=O)NCC(=O)N[C@@H](CC(C)C)C(=O)N[C@@H](CC(C)C)C(=O)N[C@@H](CCC(N)=O)C(=O)N[C@H](C(=O)N[C@@H](CC(C)C)C(=O)N[C@@H](CC(C)C)C(=O)N[C@@H](CCC(=O)O)C(=O)N[C@@H](CCC(N)=O)C(=O)N[C@@H](CCC(=O)O)C(=O)N[C@@H](CCCCN)C(=O)N[C@@H](CCC(N)=O)C(=O)N[C@@H](CCC(=O)O)C(=O)N[C@@H](CCCCN)C(=O)N[C@@H](CCC(=O)O)C(=O)N[C@@H](CCCCN)C(=O)N[C@@H](CCC(N)=O)C(=O)N[C@@H](CCC(N)=O)C(=O)N[C@@H](C)C(=O)N[C@@H](CCCCNC(=O)COCCOCCNC(=O)COCCOCCNC(=O)CC[C@H](NC(=O)CC[C@H](NC(=O)CCCCCCCCCCCCCCCCC(=O)O)C(=O)O)C(=O)O)C(=O)N[C@H](C(=O)N[C@@H](CC(N)=O)C(=O)N[C@@H](C)C(=O)N[C@@H](CCC(N)=O)C(=O)N[C@H](C(=O)N[C@@H](CC(C)C)C(=O)N[C@@H](C)C(=O)N[C@@H](CCC(N)=O)C(=O)N[C@H](C(N)=O)C(C)C)[C@@H](C)CC)[C@@H](C)O)[C@@H](C)CC)[C@@H](C)CC)C(C)C)C(C)C [Example 3] (H-[NMeI]VLSLDVPIGLLQILLEQEKQEKEKQQAK([AEEA-AEEA-γGlu-γGlu-C18 diacid])TNAQILAQV-NH2)

Compound: CC[C@H](C)[C@H](NC)C(=O)N[C@H](C(=O)N[C@@H](CC(C)C)C(=O)N[C@@H](CO)C(=O)N[C@@H](CC(C)C)C(=O)N[C@@H](CC(=O)O)C(=O)N[C@H](C(=O)N1CCC[C@H]1C(=O)N[C@H](C(=O)NCC(=O)N[C@@H](CC(C)C)C(=O)N[C@@H](CC(C)C)C(=O)N[C@@H](CCC(N)=O)C(=O)N[C@H](C(=O)N[C@@H](CC(C)C)C(=O)N[C@@H](CC(C)C)C(=O)N[C@@H](CCC(=O)O)C(=O)N[C@@H](CCC(N)=O)C(=O)N[C@@H](CCC(=O)O)C(=O)N[C@@H](CCCCN)C(=O)N[C@@H](CCC(N)=O)C(=O)N[C@@H](CCC(=O)O)C(=O)N[C@@H](CCCCN)C(=O)N[C@@H](CCC(=O)O)C(=O)N[C@@H](CCCCN)C(=O)N[C@@H](CCC(N)=O)C(=O)N[C@@H](CCC(N)=O)C(=O)N[C@@H](C)C(=O)N[C@@H](CCCCNC(=O)COCCOCCNC(=O)COCCOCCNC(=O)CC[C@H](NC(=O)CC[C@H](NC(=O)CCCCCCCCCCCCCCCCCCC(=O)O)C(=O)O)C(=O)O)C(=O)N[C@H](C(=O)N[C@@H](CC(N)=O)C(=O)N[C@@H](C)C(=O)N[C@@H](CCC(N)=O)C(=O)N[C@H](C(=O)N[C@@H](CC(C)C)C(=O)N[C@@H](C)C(=O)N[C@@H](CCC(N)=O)C(=O)N[C@H](C(N)=O)C(C)C)[C@@H](C)CC)[C@@H](C)O)[C@@H](C)CC)[C@@H](C)CC)C(C)C)C(C)C [Example 4] (H-[NMeI]VLSLDVPIGLLQILLEQEKQEKEKQQAK([AEEA-AEEA-γGlu-γGlu-C20 diacid])TNAQILAQV-NH2)
EC50 (human CRHR2b): 1.85 ± 0.51 nM
AUC(0-inf) [3, 11]: 51.6 µM·h
Cmax [3, 11]: 1160 nM
Tmax [3, 11]: 24 h
AUC(0-inf) [4, 12]: 51.829 µM·h and 46.654 µM·h
Cmax [4, 12]: 333 nM and 291 nM
AUC(0-inf) [4, 13]: 49.2 µM·h
Cmax [4, 13]: 312 nM
Tmax [4, 14]: 36 h
Tmax [4, 15]: 48 h
